In patent US8273900B2, “Organic compounds” (Novartis AG, priority 2008, dated 2012):
Counter-ions that a name gives are not always drawn.

Target: T1, human recombinant CRF-1 receptor (Homo sapiens, UniProt P34998)
T1 construct: expressed in transfected cells; host or cells: CHO cells (G418-selected)
T1 sequence (P34998 24-415): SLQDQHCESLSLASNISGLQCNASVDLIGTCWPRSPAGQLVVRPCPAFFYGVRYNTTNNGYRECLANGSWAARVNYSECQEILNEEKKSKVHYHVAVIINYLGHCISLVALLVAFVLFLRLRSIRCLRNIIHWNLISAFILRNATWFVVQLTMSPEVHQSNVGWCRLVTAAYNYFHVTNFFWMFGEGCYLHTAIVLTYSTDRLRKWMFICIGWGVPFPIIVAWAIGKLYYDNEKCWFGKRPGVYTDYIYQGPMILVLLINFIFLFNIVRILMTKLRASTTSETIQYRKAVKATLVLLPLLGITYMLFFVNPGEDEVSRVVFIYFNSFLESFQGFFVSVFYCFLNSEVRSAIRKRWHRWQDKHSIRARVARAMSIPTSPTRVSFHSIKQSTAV
Experiment: CRF-1 receptor antagonism, HTRF cAMP assay in CHO cells in the presence of 1 nM CRF
Type: cell-based
Conditions: CHO cells expressing human recombinant CRF-1; inhibition of the effect of 1 nM CRF on cAMP
Description: The CRF-1 or CRF-2α receptor antagonistic activity of the agents of the invention has been determined in vitro in the following assay:
Chinese hamster ovary (CHO) cells expressing either the human recombinant CRF-1 or CRF-2a receptors (Chen et al., Proc Natl Acad Sci USA 90, 8967-8971, 1993; Liaw et al., Endocrinology 137, 72-77, 1996) are propagated in Dulbecco's modified Eagle medium supplemented with 10% foetal calf serum, non-essential amino acids, 100 U/ml penicillin, 100 mg/l streptomycin and 1 g/l geneticin (G418). For cyclic AMP determinations the Homogeneous Time-Resolved Fluoresce (HTRF) cAMP dynamic 2 kit (Cisbio International, France) was used as per manufacturers' instructions. CHO cells, previously cryopreserved, were thawed, centrifuged for 7 mins at 1200 rpm and resuspended in serum free media, then pipetted out onto clear bottomed black tissue culture treated 384-well microtitre plates (Corning Inc, US) at 2,000 cells per well. Compounds of the invention, prepared in DMSO, and subsequently diluted 50 fold in assay buffer (1× Hanks balanced salt solution, 0.2% (w/v) bovine serum albumin, 1.7 mM isobutylmethylxanthine and 10 mM Hepes, pH 7.4) are then added onto the cell containing plate where a further 2 fold dilution is performed and incubated for 15 min. Following incubation, buffer containing a 5 times final concentration of agonist is added to the plate and incubated for 30 min. Finally, d2 dye labelled cAMP and cryptate labeled anti-cAMP antibody, both made in lysis buffer, are added to the plate followed by a settling period of 1 hour. During the settling period cAMP produced by the cells competes with the d2 labelled cAMP for the anti-cAMP cryptate. The plate is read on the Pherastar (BMG, Germany). Increasing levels of endogenous cAMP produced by cells can be followed by a decrease of fluorescent signal and vice versa. Values represented by a change in arbitrary fluorescence units are converted into cAMP concentrations by use of a standard curve the reagents for which are supplied with the kit. Antagonist dose response curves (1 nM-30 μM) are constructed in the presence of 1 nM CRF. IC50 values of antagonists are calculated by fitting the percent inhibition of the effect of CRF by increasing concentrations of the antagonists. The fit is performed using the nonlinear logistic function of the Activitybase software package v 5.4.5.27 (IDBS, UK).

SMILES | IC50 [nM]
Cc1ncc(Cl)cc1C(=O)N[C@H]1CC[C@H](Cn2nc(C)c(C)c2C)CC1 [Example 18, Trans-5-Chloro-2-methyl-N-[4-(3,4,5-trimethyl-pyrazol-1-ylmethyl)-cyclohexyl]-nicotinamide] | 577
Cc1nc(NC[C@H]2CC[C@H](NC(=O)c3cc(C(F)(F)F)ccc3Cl)CC2)sc1C [Example 3, Trans-2-chloro-N-{4-[(4,5-dimethyl-thiazol-2-ylamino)-methyl]-cyclohexyl}-5-trifluoromethyl-benzamide] | 60
O=C(N[C@H]1CC[C@H](CNCc2cc(-c3ccccc3)on2)CC1)c1cc(C(F)(F)F)ccc1Cl [Example 2.35, Trans-2-Chloro-N-(4-{[(5-phenyl-isoxazol-3-ylmethyl)-amino]-methyl}-cyclohexyl)-5-trifluoromethyl-benzamide] | 346
Cc1cnc(NC[C@H]2CC[C@H](NC(=O)c3cc(C(F)(F)F)ccc3Cl)CC2)s1 [Example 2.5, Trans-2-Chloro-N-{4-[(5-methyl-thiazol-2-ylamino)-methyl]-cyclohexyl}-5-trifluoromethyl-benzamide] | 36
Cc1nc(NC[C@H]2CC[C@H](NC(=O)c3cc(Cl)cnc3Cl)CC2)sc1C [Example 1.18, Trans-2,5-Dichloro-N-{4-[(4,5-dimethyl-thiazol-2-ylamino)-methyl]-cyclohexyl}-nicotinamide] | 31
CN(C)Cc1ccc(NC[C@H]2CC[C@H](NC(=O)c3cc(C(F)(F)F)ccc3Cl)CC2)nc1 [Example 1.34, Trans-2-Chloro-N-{4-[(5-dimethylaminomethyl-pyridin-2-ylamino)-methyl]-cyclohexyl}-5-trifluoromethyl-benzamide hydrochloride] | 1240
O=C(N[C@H]1CC[C@H](CNc2ccccc2)CC1)c1cccc(Cl)c1 [Example 12, Trans-3-Chloro-N-(4-phenylaminomethyl-cyclohexyl)-benzamide] | 137
Cc1cncc(NC[C@H]2CC[C@H](NC(=O)c3cc(C(F)(F)F)ccc3Cl)CC2)c1 [Example 10, Trans-2-chloro-N-(4-((5-methylpyridin-3-ylamino)methyl)-cyclohexyl)-5-(trifluoromethyl)benzamide] | 41
O=C(N[C@H]1CC[C@H](CNc2cccc(F)c2)CC1)c1cc(C(F)(F)F)ccc1Cl [Example 9, Trans-2-Chloro-N-{4-[(3-fluoro-phenylamino)-methyl]-cyclohexyl}-5-trifluoromethyl-benzamide] | 50
CN(Cc1cc(-c2ccccc2)n[nH]1)C[C@H]1CC[C@H](NC(=O)c2cc(Cl)ccc2Cl)CC1 [Example 11, Trans-2,5-Dichloro-N-(4-{[methyl-(5-phenyl-2H-pyrazol-3-ylmethyl)amino]-methyl}-cyclohexyl)-benzamide] | 174
C[C@@H]1C[C@@H](NC(=O)c2cc(C(F)(F)F)ccc2Cl)CC[C@@H]1CNc1cc(-c2ccc(F)cc2)[nH]n1 (racemic) [Example 1.35a, (+/−)-2-Chloro-N-((1S,3R,4S)-4-{[5-(4-fluoro-phenyl)-1H-pyrazol-3-ylamino]-methyl}-3-methyl-cyclohexyl)-5-trifluoromethyl-benzamide] | 199

More lines, now with the values ahead:

IC50 [nM] | SMILES
63 | CC(C)c1cc(NC[C@H]2CC[C@H](NC(=O)c3cc(C(F)(F)F)ccc3Cl)CC2)n[nH]1 [Example 4.16, Trans-2-Chloro-N-{4-[(5-isopropyl-1H-pyrazol-3-ylamino)-methyl]-cyclohexyl}-5-trifluoromethyl-benzamide]
26 | O=C(N[C@H]1CC[C@H](CNc2cncc(F)c2)CC1)c1cc(C(F)(F)F)ccc1Cl [Example 19.1, Trans-2-chloro-N-(4-((5-fluoropyridin-3-ylamino)methyl)cyclohexyl)-5-(trifluoromethyl) benzamide]
32 | COc1ccc2c(NC[C@H]3CC[C@H](NC(=O)c4cc(C(F)(F)F)ccc4Cl)CC3)n[nH]c2c1 [Example 19.68, Trans-2-chloro-N-(4-((6-methoxy-1H-indazol-3-ylamino)methyl)cyclohexyl)-5-(trifluoromethyl) benzamide]
234 | O=C(N[C@H]1CC[C@H](Cn2ccc(-c3ccccc3)n2)CC1)c1cc(C(F)(F)F)ccc1Cl [Example 22.3, 2-Chloro-N-[4-(3-phenyl-pyrazol-1-ylmethyl)-cyclohexyl]-5-trifluoromethyl-benzamide]
37 | Cc1c(NC[C@H]2CC[C@H](NC(=O)c3cc(C(F)(F)F)ccc3Cl)CC2)n[nH]c1-c1ccccc1 [Example 19.79, Trans-2-chloro-N-(4-((4-methyl-5-phenyl-1H-pyrazol-3-ylamino)methyl)cyclohexyl)-5-(trifluoromethyl) benzamide]
22 | Cc1cc(NC[C@H]2CC[C@H](NC(=O)c3cc(C(F)(F)F)ccc3Cl)CC2)ncc1Cl [Example 19.69, Trans-2-chloro-N-(4-((5-chloro-4-methylpyridin-2-ylamino)methyl)cyclohexyl)-5-(trifluoromethyl) benzamide]
72 | Cc1ncc(Cl)cc1C(=O)N[C@H]1CC[C@H](CNc2ccc(F)cn2)CC1 [Example 19.108, Trans-5-Chloro-N-{4-[(5-fluoro-pyridin-2-ylamino)-methyl]-cyclohexyl}-2-methyl-nicotinamide]
299 | Cc1nc(C)n(C[C@H]2CC[C@H](NC(=O)c3cc(C(F)(F)F)ccc3Cl)CC2)n1 [Example 21.4, 2-Chloro-N-[4-(3,5-dimethyl-[1,2,4]triazol-1-ylmethyl)-cyclohexyl]-5-trifluoromethyl-benzamide]
59 | Cc1cc(NC[C@H]2CC[C@H](NC(=O)c3cc(C(F)(F)F)ccc3Cl)CC2)n(-c2ccc(Cl)cc2)n1 [Example 19.116, Trans-2-Chloro-N-(4-{[2-(4-chloro-phenyl)-5-methyl-2H-pyrazol-3-ylamino]-methyl}-cyclohexyl)-5-trifluoromethyl-benzamide]
38 | Cc1cc(NC[C@H]2CC[C@H](NC(=O)c3cc(Cl)cnc3C)CC2)ncc1Cl [Example 19.83, Trans-5-chloro-N-(4-((5-chloro-4-methylpyridin-2-ylamino)methyl)cyclohexyl)-2-methyl-nicotinamide]
88 | O=C(N[C@H]1CC[C@H](CNc2n[nH]c3ncccc23)CC1)c1cc(C(F)(F)F)ccc1Cl [Example 19.57, Trans-N-(4-((1H-pyrazolo[3,4-b]pyridin-3-ylamino)methyl)cyclohexyl)-2-chloro-5-(trifluoromethyl) benzamide]
69 | Cn1cc(-c2ccccc2)c(NC[C@H]2CC[C@H](NC(=O)c3cc(C(F)(F)F)ccc3Cl)CC2)n1 [Example 19.101, Trans-2-Chloro-N-{4-[(1-methyl-4-phenyl-1H-pyrazol-3-ylamino)-methyl]-cyclohexyl}-5-trifluoromethyl-benzamide]
28 | CCc1cncc(NC[C@H]2CC[C@H](NC(=O)c3cc(C(F)(F)F)ccc3Cl)CC2)c1 [Example 19.53, Trans-2-chloro-N-(4-((5-ethylpyridin-3-ylamino)methyl)cyclohexyl)-5-(trifluoromethyl) benzamide]
114 | O=C(N[C@H]1CC[C@H](Cn2ncc3ccccc32)CC1)c1cc(C(F)(F)F)ccc1Cl [Example 21.1, N-(4-((1H-indazol-1-yl)methyl)cyclohexyl)-2-chloro-5-(trifluoromethyl) benzamide]
17 | O=C(N[C@H]1CC[C@H](CNc2n[nH]c3cccc(F)c23)CC1)c1cc(C(F)(F)F)ccc1Cl [Example 19.63, Trans-2-chloro-N-(4-((4-fluoro-1H-indazol-3-ylamino)methyl)cyclohexyl)-5-(trifluoromethyl) benzamide]
87 | Cc1ccc2[nH]nc(NC[C@H]3CC[C@H](NC(=O)c4cc(C(F)(F)F)ccc4Cl)CC3)c2c1 [Example 19.59, Trans-2-chloro-N-(4-((5-methyl-1H-indazol-3-ylamino)methyl)cyclohexyl)-5-(trifluoromethyl) benzamide]
